Measured values as given in patent publication US20150111852A1, “1-Di(sec-butyl)-phosphinoyl-pentane (dapa-2-5) as a topical agent” (priority 2013, published 2015).

How the values were obtained:
[1] = test system: Strains TA 98 and TA100; assay: Ames test; type: cell-based; conditions: Strains TA 98 and TA100, with and without liver activation
Method: Preliminary toxicological studies were conducted on DAPA-2-5 and DAPA-2-7.

[2] = Repeated-dose toxicity in male rats (organ weights, histology); type: in vivo, rat
Method: DAPA-2-7, dissolved in 3% ethanol/97% 1,2-propanediol, or vehicle alone, was administered subcutaneously to male rats (N=8 per group) at 30 mg/kg body weight daily for 7 days, and on the 8th day, the animals were euthanized with sodium pentobarbital and the major organs (body, heart, liver, lungs, kidney, testes, brain) were removed and weighed. Heart tissues (ventricle and heart valves) and liver samples were stained with hematoxylin and eosin and the histology examined.
In a large scale trial, DAPA-2-5 was administered via drinking water to male rats for 40 days. The DAPA-2-5 was mixed with condensed milk [8.5%] at 0.5 mg/mL and liquid consumption was monitored. The averaged intake in the treated group [N=12 rats] was 41 mg/kg body weight/day for 40 days. The vehicle alone group was N=11.

[3] = biological target: T1, TRPV1 channels (human TRPV1 gene expressed in HEK293 cells) (Homo sapiens, UniProt Q8NER1); assay: TRPV1 agonist assay; type: cell-based
T1 construct: expressed in transfected cells; host or cells: HEK293 cells
T1 sequence (Q8NER1 whole entry): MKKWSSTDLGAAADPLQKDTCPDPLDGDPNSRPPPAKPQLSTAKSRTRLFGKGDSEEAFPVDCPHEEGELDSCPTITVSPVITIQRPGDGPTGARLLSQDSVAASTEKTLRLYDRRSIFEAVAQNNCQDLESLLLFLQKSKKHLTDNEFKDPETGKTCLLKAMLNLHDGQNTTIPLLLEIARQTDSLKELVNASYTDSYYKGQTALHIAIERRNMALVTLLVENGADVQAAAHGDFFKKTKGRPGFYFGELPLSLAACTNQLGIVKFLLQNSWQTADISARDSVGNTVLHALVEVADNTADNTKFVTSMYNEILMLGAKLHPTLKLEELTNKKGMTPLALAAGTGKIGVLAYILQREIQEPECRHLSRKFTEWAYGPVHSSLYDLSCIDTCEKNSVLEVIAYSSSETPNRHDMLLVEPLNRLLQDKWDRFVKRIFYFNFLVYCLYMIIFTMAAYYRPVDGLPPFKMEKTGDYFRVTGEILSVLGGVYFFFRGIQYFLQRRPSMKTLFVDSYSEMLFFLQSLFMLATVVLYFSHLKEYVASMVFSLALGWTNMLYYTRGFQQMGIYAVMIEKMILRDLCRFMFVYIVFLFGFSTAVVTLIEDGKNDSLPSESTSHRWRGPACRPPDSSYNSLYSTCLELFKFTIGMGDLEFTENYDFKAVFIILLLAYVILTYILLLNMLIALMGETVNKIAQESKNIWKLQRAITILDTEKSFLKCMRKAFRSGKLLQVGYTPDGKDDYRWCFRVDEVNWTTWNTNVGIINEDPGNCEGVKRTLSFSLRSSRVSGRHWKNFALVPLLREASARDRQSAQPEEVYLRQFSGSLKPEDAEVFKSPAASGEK
Method: (§1) To examine the specificity of the test compounds, further studies were conducted on TRPV1 channels (human TRPV1 gene expressed in HEK293 cells) and TRPA1 channels (human TRPA1 gene expressed in CHO cells). The test cells were Chinese Hamster Ovary (CHO) cells or Human Embyronic Kidney (HEK) 293 cells transfected with human TRPV1 or TRPA1 cDNAs.

[4] = biological target: T2, TRPA1 channels (human TRPA1 gene expressed in CHO cells) (Homo sapiens, UniProt O75762); assay: TRPA1 agonist assay; type: cell-based; conditions: maximum tested concentrations of 100 μM
T2 construct: expressed in transfected cells; host or cells: CHO cells
T2 sequence (O75762 whole entry): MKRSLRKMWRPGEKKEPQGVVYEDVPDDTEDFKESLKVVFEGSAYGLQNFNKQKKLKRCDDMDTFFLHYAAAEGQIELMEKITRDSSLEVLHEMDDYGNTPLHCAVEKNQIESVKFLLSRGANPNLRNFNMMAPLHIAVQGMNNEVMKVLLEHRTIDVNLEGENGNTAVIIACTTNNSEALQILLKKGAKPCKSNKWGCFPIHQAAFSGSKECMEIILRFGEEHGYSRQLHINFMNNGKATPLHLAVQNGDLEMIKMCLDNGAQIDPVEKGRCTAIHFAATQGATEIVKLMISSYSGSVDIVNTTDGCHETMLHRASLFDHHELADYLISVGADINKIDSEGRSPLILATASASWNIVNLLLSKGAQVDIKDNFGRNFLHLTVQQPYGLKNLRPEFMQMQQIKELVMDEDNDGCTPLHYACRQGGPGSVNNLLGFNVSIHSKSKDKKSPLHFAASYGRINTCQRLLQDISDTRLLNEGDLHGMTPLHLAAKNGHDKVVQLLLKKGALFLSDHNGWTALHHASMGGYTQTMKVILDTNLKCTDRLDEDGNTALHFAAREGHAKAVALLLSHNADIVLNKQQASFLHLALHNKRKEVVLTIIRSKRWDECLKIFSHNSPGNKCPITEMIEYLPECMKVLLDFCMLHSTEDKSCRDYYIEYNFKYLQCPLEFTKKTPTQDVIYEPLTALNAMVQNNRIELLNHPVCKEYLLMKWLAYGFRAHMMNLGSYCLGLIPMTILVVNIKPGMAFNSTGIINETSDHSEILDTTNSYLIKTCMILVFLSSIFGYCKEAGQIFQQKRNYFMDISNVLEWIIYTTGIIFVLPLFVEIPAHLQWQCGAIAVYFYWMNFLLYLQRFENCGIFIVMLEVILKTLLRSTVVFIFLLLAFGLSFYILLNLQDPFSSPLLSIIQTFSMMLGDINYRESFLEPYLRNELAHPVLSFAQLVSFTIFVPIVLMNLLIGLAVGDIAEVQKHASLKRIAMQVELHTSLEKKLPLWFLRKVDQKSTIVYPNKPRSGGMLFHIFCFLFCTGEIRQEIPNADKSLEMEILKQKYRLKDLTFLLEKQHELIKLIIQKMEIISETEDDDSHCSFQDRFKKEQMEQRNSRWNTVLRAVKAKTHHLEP
Method: as §1

[5] = biological target: T3, hNav1.7 (sodium channels) (Homo sapiens, UniProt Q15858); assay: Patch-clamp in transfected cells, hNav1.7; type: cell-based; conditions: DAPA-2-5 at 5 μM; positive control lidocaine
T3 construct: expressed in transfected cells
T3 sequence (Q15858 whole entry): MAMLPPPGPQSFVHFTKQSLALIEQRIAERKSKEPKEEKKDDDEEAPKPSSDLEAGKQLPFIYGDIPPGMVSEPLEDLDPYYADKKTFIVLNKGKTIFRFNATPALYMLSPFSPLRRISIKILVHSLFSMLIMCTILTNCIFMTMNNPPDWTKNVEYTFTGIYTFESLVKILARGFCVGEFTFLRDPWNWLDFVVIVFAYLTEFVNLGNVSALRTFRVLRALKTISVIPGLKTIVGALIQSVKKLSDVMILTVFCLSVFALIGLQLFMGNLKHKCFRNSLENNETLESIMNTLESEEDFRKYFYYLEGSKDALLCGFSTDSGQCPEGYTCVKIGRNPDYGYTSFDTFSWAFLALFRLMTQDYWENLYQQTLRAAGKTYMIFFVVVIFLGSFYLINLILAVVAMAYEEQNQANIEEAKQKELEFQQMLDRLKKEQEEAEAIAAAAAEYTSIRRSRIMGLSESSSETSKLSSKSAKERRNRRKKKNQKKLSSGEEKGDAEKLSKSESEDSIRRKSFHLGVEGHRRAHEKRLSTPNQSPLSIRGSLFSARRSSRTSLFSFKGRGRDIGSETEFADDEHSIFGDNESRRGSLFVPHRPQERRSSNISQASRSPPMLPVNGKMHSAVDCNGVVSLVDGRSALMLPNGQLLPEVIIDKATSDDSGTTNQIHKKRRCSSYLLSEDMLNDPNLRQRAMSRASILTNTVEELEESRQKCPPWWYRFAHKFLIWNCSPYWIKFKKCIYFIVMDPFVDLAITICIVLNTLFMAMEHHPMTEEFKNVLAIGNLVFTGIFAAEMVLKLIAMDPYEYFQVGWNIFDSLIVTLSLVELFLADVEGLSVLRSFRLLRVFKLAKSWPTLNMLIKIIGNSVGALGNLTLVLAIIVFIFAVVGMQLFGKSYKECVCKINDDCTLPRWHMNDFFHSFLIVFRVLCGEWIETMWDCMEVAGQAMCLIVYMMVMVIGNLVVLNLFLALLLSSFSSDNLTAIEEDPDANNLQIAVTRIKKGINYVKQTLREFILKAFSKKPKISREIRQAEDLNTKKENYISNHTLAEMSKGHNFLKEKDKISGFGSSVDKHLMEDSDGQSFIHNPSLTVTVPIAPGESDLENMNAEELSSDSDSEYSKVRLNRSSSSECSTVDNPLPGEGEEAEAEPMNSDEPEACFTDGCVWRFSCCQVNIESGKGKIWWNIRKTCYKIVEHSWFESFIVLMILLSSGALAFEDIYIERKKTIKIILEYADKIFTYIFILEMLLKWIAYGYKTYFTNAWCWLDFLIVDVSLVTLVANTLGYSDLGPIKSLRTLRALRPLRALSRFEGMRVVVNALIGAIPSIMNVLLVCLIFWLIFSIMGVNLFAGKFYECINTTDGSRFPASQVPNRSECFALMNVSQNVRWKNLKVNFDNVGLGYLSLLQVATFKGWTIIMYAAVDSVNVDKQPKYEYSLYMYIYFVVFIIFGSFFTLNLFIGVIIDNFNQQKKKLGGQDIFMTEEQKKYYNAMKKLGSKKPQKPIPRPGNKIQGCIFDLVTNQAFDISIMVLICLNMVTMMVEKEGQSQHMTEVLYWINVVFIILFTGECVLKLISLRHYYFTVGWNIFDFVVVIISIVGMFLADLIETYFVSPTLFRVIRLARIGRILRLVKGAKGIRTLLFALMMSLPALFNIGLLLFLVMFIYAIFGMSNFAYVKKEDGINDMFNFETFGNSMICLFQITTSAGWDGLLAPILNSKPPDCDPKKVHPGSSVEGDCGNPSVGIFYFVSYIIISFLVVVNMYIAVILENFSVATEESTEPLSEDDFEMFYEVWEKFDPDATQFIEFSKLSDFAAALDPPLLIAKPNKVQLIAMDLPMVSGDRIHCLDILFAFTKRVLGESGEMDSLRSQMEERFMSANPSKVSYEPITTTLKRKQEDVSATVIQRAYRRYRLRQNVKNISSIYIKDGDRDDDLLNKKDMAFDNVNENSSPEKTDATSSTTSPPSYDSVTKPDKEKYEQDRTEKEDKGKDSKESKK

[6] = test system: isolated normal mouse vagus; assay: Capsaicin-induced depolarization of isolated vagus nerve, wild type
Method: (§2) To examine the ability of DAPA-2-5 to suppress sensory discomfort, it was tested in an animal model developed at the Imperial College, London, U.K. [Birrell et al. TRPA1 agonists evoke coughing in guinea pig and human volunteers. Amer. J. Respiratory and Critical Care Medicine 180, 1042-7, 2009; Patel et al., Inhibition of guinea-pig and human sensory nerve activity and the cough reflex in guinea-pigs by cannabinoid (CB2) receptor activation. British J. Pharmacol. 140, 261-8 2003]. In this in vitro assay, segments of the vagus nerve are placed on a platform and the electrical activity is recorded after topical application of capsaicin. Capsaicin is a known irritant that elicits pain when it is applied to the skin and it will depolarize the isolated vagus. The ability of substances to inhibit this capsaicin-induced depolarization is measured.
(§3) Briefly, segments of vagus nerve, caudal to the nodose ganglion, were removed from mice with fine forceps and segments placed in oxygenated Krebs solution and bubbled with 95% O2/5% CO2. The desheathed nerve trunk was mounted in a ‘grease-gap’ recording chamber and constantly superfused with Krebs solution with a flow rate of approximately 2 mL/min, and the electrical activity of the nerve monitored with electrodes. The temperature of the perfusate was kept constant at 37° C. by a water bath. […]

[7] = test system: isolated TRPM8 knock-out mouse vagus; assay: Capsaicin-induced depolarization of isolated vagus nerve, TRPM8 knock-out; conditions: 1 mg/mL, capsaicin 1 μM, TRPM8 KO, read-out: per cent inhibition of capsaicin-induced depolarization
Method: as §2, §3

[8] = test system: citric acid-induced cough; assay: Guinea pig cough model, citric acid mist; type: in vivo; conditions: 2 mg/mL in saline, 75 μL per animal, 1 M citric acid mist, 10 min observation period
Method: Male specific pathogen—free guinea pigs about one month of age, weighing 250 to 300 g, were obtained from the medical experimental animal center of Guang Dong Province, China, and housed in rooms maintained at 22±2° C. and 55±15% humidity with a 12-hr light cycle and 20 air changes per hr. The experimental procedures were approved by the Institutional Animal Care and Use Committee. Guinea pigs were placed in a transparent plastic 2 L plethysmography chamber equipped with a bias flow regulator that withdrew air at a rate of 2.5 L/min (Buxco, Wilmington, N.C., USA). […] The frequency was detected as a transient change in airflow in the chamber and the signal recorded via a pressure transducer and computer. Additionally, the audio-amplified count was also recorded electronically. Coughs were counted for the 10 min exposure period. The experiment was visually monitored by the investigator. The baseline frequency of coughing was recorded for all animals (N=20) and 7 days later, animals were anesthetized with diethyl ether. […] Ten min after injection, the guinea pigs were exposed to the citric acid mist and the number of coughs recorded.

[9] = test system: throat, airway and chest discomfort; assay: Case studies with DAPA-2-5 tablets in human subjects; type: in vivo; conditions: for precipitation of “ice cream headache” (Case Study 5): ODT-A 2 mg
[10] = test system: mouth and throat; assay: Sensory activity of ODT-C on volunteers (double-blind, modified ASHRAE scale); type: in vivo, human; conditions: doses higher than 1.5 mg
[11] = male rats, 30 mg/kg subcutaneously daily for 7 days

CCCCCP(=O)(C(C)CC)C(C)CC (centres unmarked) [DAPA-2-5, 1-Di(sec-butyl)-phosphinoyl-pentane]
mutagenic in the Ames test [1]: Neither of these compounds was mutagenic | difference in organ weights or histology vs vehicle ([2]; male rats, via drinking water, averaged intake 41 mg/kg body weight/day for 40 days): no statistical difference | difference in organ weights or histology vs vehicle ([2]; rats, 20 mg/kg perioral by gavage for 7 days): no statistical difference | times less potent than DAPA-2-6 in stimulating TRPV1 [3]: 54 | agonist activity on TRPA1 channels [4]: did not exhibit any agonist activity | agonist or antagonist activity, hNav1.7 [5]: No agonist or antagonist activities | depolarization evoked by the compound itself [6]: did not evoke depolarization | inhibition at 1000 µg/mL ([6]; Mus musculus, 10 min, 1 mg/mL for 10 min, capsaicin 1 μM, read-out: per cent inhibition of capsaicin-induced depolarization): ~60% | inhibition at 1000 µg/mL [7]: ~0% | cough frequency [8]: 6.7±1.6 coughs | effective in reducing throat discomfort (Case Study 7) ([9]; ODT-A 1.0 mg as needed, six women): 100% | hoarseness and loss of voice (Case Study 6) ([9]; ODT-A 1 mg, twenty trials): immediate relief from throat discomfort | choking and gagging in asthma (Case Study 4) ([9]; ODT-A 1 mg, two subjects): effective in controlling choking and gagging | cough in cough variant asthma (Case Study 4) ([9]; ODT-A 1.5 mg, two or three tablets at a time, after a week's trial): completely under control | precipitation of “ice cream headache” (Case Study 5) [9]: Neither of the ODT precipitated a headache response | relief of hoarseness (Case Study 1) ([9]; ODT-A, 1 to 1.5 mg, person, five occasions): fully effective in relieving their hoarseness | time to disappearance of chest discomfort (Case Study 8, second person) ([9]; four tablets with water): about 10 min | snoring (Case Study 9) ([9]; tablets 2 mg before sleep): stopped snoring | time to relief of chest discomfort (Case Study 8) ([9]; three tablets, each 1.5 mg): ≤ 5 min | hiccups (Case Study 5) ([9]; two DAPA-2-5 ODT): stopped within several min | throat discomfort from acid reflux (Case Study 5) ([9]; two DAPA-2-5 ODT): immediately controlled their throat discomfort from acid reflux | nasal congestion (Case Study 2) ([9]; two tablets of 1 mg or one of 1.5 mg, with viral cold): effective remedy | ODT-C test results at higher doses [10]: higher than 1.5 mg “penetrating cold” sensations.

CCCCCCP(=O)(C(C)CC)C(C)CC (centres unmarked) [DAPA-2-6, 1-Di(sec-butyl) phosphinoyl-hexane]
agonist activity on TRPA1 channels [4]: did not exhibit any agonist activity

CCCCCCCP(=O)(C(C)CC)C(C)CC (centres unmarked) [DAPA-2-7, 1-Di(sec-butyl) phosphinoyl-heptane]
mutagenic in the Ames test [1]: Neither of these compounds was mutagenic | differences in body or organ weights vs vehicle [2, 11]: no significant differences | heart and liver histology [2, 11]: normal | agonist activity on TRPA1 channels [4]: did not exhibit any agonist activity | precipitation of “ice cream headache” (Case Study 5) [9]: Neither of the ODT precipitated a headache response
